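Grown in 96-well plates, cells were treated for 48 hours with each compound at five concentrations. Insufficient inhibition: endpoint recorded as highest concentration tested. The concentration for 50% growth inhibition is given as GI50. Definition used: TGI = concentration required for complete inhibition of growth.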
Tests used:
Assay in all cases: NCI tumour cell line growth inhibition, 48 h
786-0 renal = test system: 786-0 renal
A498 renal = test system: A498 renal
A549 NSCLC = test system: A549 NSCLC
ACHN renal = test system: ACHN renal
BT-549 breast = test system: BT-549 breast
CAKI-1 renal = test system: CAKI-1 renal
CCRF-CEM leukemia = test system: CCRF-CEM leukemia
COLO 205 colon = test system: COLO 205 colon
DU-145 prostate = test system: DU-145 prostate
EKVX NSCLC = test system: EKVX NSCLC
HCC-2998 colon = test system: HCC-2998 colon
HCT-116 colon = test system: HCT-116 colon
HCT-15 colon = test system: HCT-15 colon
HL-60(TB) leukemia = test system: HL-60(TB) leukemia
HOP-62 NSCLC = test system: HOP-62 NSCLC
HOP-92 NSCLC = test system: HOP-92 NSCLC
HS 578T breast = test system: HS 578T breast
HT29 colon = test system: HT29 colon
IGROV1 ovarian = test system: IGROV1 ovarian
K-562 leukemia = test system: K-562 leukemia
KM12 colon = test system: KM12 colon
LOX IMVI melanoma = test system: LOX IMVI melanoma
M14 melanoma = test system: M14 melanoma
MALME-3M melanoma = test system: MALME-3M melanoma
MCF7 breast = test system: MCF7 breast
MDA-MB-231 breast = test system: MDA-MB-231 breast
MDA-MB-435 = test system: MDA-MB-435
MOLT-4 leukemia = test system: MOLT-4 leukemia
NCI-H226 lung = test system: NCI-H226 lung

O=Cc1cn(Cc2ccc(Cl)cc2)c2ccccc12
GI50 (786-0 renal): 13.6 µM | TGI (786-0 renal): 64.5 µM | GI50 (A498 renal): 0.0342 µM | TGI (A498 renal): 0.172 µM | GI50 (A549 NSCLC): 13.4 µM | TGI (A549 NSCLC): > 100 µM | GI50 (ACHN renal): 27.4 µM | TGI (ACHN renal): > 100 µM | GI50 (BT-549 breast): 11.4 µM | TGI (BT-549 breast): 49.2 µM | GI50 (CAKI-1 renal): 0.101 µM | TGI (CAKI-1 renal): 3.42 µM | GI50 (CCRF-CEM leukemia): 19.7 µM | TGI (CCRF-CEM leukemia): > 100 µM | GI50 (COLO 205 colon): 2.17 µM | TGI (COLO 205 colon): 20.7 µM | GI50 (DU-145 prostate): 22.3 µM | TGI (DU-145 prostate): > 100 µM | GI50 (EKVX NSCLC): 21 µM | TGI (EKVX NSCLC): > 100 µM | GI50 (HCC-2998 colon): 14.3 µM | TGI (HCC-2998 colon): > 100 µM | GI50 (HCT-116 colon): 4.83 µM | TGI (HCT-116 colon): 30 µM | GI50 (HCT-15 colon): 15.5 µM | TGI (HCT-15 colon): > 100 µM | GI50 (HL-60(TB) leukemia): 22.5 µM | TGI (HL-60(TB) leukemia): 72.8 µM | GI50 (HOP-62 NSCLC): 2.63 µM | TGI (HOP-62 NSCLC): > 100 µM | GI50 (HOP-92 NSCLC): 4.43 µM | TGI (HOP-92 NSCLC): 49 µM | GI50 (HS 578T breast): 19.2 µM | TGI (HS 578T breast): > 100 µM | GI50 (HT29 colon): 24.4 µM | TGI (HT29 colon): > 100 µM | GI50 (IGROV1 ovarian): 1.22 µM | TGI (IGROV1 ovarian): 39.4 µM | GI50 (K-562 leukemia): 4.21 µM | TGI (K-562 leukemia): > 100 µM | GI50 (KM12 colon): 26.4 µM | TGI (KM12 colon): > 100 µM | GI50 (LOX IMVI melanoma): 12.1 µM | TGI (LOX IMVI melanoma): > 95 µM | GI50 (M14 melanoma): 15.2 µM | TGI (M14 melanoma): 72.5 µM | GI50 (MALME-3M melanoma): 14.3 µM | TGI (MALME-3M melanoma): 43.3 µM | GI50 (MCF7 breast): 4.12 µM | TGI (MCF7 breast): > 67.2 µM | GI50 (MDA-MB-231 breast): 9.7 µM | TGI (MDA-MB-231 breast): > 56.3 µM | GI50 (MDA-MB-435): 23 µM | TGI (MDA-MB-435): > 100 µM | GI50 (MOLT-4 leukemia): 17.9 µM | TGI (MOLT-4 leukemia): > 82.7 µM | GI50 (NCI-H226 lung): 0.041 µM | TGI (NCI-H226 lung): 0.251 µM

Reference: PubChem BioAssay (NCI)
